Experimental data published in US20240327425A1, “KRAS G12D INHIBITOR AND USE THEREOF” (SHANGHAI DE NOVO PHARMATECH CO., LTD., priority 2021, published 2024).
Values belong to the molecule of their own block, whether it stands above or below them.

Assays:
[1] = target: Human KRAS G12D His-tagged protein (Homo sapiens (Human), UniProt P01116, G12D); assay: KRAS G12D binding assay (TR-FRET); settings: GDP 20 nM, GTP-Red
Procedure: The binding ability of the compound to KRAS G12D protein was detected by TR-FRET method, and the inhibitory activity of the compound on KRAS G12D protein was evaluated. Human KRAS G12D His-tagged (Cisbio, 63ADK000CB27PEG) protein was 100-fold diluted with PPI Eu detection buffer (Cisbio, 61DB9RBF), then 5 μL of which was added to a 384-well plate and centrifuged at 2000 rpm for 40 seconds. A 10 mM concentrated stock solution of the test compound was prepared with dimethyl sulfoxide, 3-fold serially diluted, then diluted to make a working solution (0.5% DMSO) with PPI Eu detection buffer, added to a 384-well plate at 5 μL/well, with the control group added with 0.5% dimethyl sulfoxide and the highest concentration of the test compound at 10 μM, and centrifuged at 2000 rpm for 40 seconds. An 80 nM GDP standard working solution (Cisbio, 63ADK000CB27PEG) was prepared with PPI Eu detection buffer and added to a 384-well plate at 5 μL/well, with the final concentration of GDP standard working solution at 20 nM. The plate was centrifuged at 2000 rpm for 40 seconds and reacted at room temperature for 30 minutes. 1×6His Eu cryptate antibody and GTP-Red reagent (Cisbio, 63ADK000CB27PEG) were prepared with PPI Eu detection buffer, mixed in a volume ratio of 1:1, 5 μL of which was then added to a 384-well plate, centrifuged at 2000 rpm for 40 seconds, and incubated at room temperature for 30 minutes. The fluorescence intensity at 620 nm and 665 nm was detected by a microplate reader, and the inhibitory activity of the compound on KRAS G12D protein was obtained by fitting a four-parameter equation.

[2] = test system: phosphorylation level of ERK1/2 in ASPC-1 human pancreatic cancer cells; assay: pERK cell level assay (PHOSPHO-ERK1/2 HTRF kit); type: cell-based; settings: Aspc-1 cells, 4 hours incubation
Procedure: In this experiment, the phosphorylation level of ERK1/2 in AGS human gastric cancer cells or ASPC-1 human pancreatic cancer cells was detected using PHOSPHO-ERK1/2 (THR202/TYR 204) (Cisibo, 64ERKPEH) kit, and the inhibitory effect of the compounds on KRAS G12D was investigated based on the phosphorylation level of ERK1/2.
On day 1, the density of AGS cell (ATCC) suspension was adjusted to 2.1×10^5 cells/mL, then the suspension was spread in a 96-well plate at 95 μL/well so that there were 2×10^4 cells per well, and the cell culture plate was incubated in a 37° C., 5% CO2 incubator for overnight. On day 2, the compound was serially diluted with 100% dimethyl sulfoxide, and then further diluted with a complete culture medium (RPMI-1640+10% FBS+1% PS) to make a working solution of the compound, which was added to a 96-well cell culture plate at 5 μL/well, and incubated in a 37° C., 5% CO2 incubator for 4 hours. After the incubation was completed, the culture medium was discarded, then 1× lysis buffer was added thereto at 50 μL/well, and the plate was shaken at room temperature for 30 minutes. 16 μL of lysis buffer was added to a white 384-well shallow well plate, then 4 μL of pre-formulated antibody mixture was added thereto, and the plate was sealed with microplate sealer and incubated at room temperature for overnight. On day 3, detection was performed on a TECAN M1000 Pro microplate reader using the HTRF setting, and the IC50 value of the compound was calculated.

[3] = test system: ASPC-1 human pancreatic cancer cells; assay: Cell proliferation assay (Cell Titer-Glo), ASPC-1; type: cell-based
Procedure: (§1) On day 1, AGS human gastric cancer cells, ASPC-1 human pancreatic cancer cells, or GP2D human colon cancer cells (Nanjing Cobioer Biosciences Co. Ltd.) in the logarithmic growth phase were taken, digested with an appropriate amount of trypsin, formulated into a single cell suspension using RPMI 1640 (Gibco) medium containing 10% fetal bovine serum and 1% penicillin-streptomycin, counted to adjust the cell density, inoculated in a 96-well plate at 95 μL/well so that there were 3000 cells per well, and then the cell culture plate was incubated in a 37° C., 5% CO2 incubator for overnight. On day 2, a 10 mM concentrated stock solution of KRAS G12D inhibitor was 3-fold serially diluted with dimethyl sulfoxide solution, and then diluted with AGS complete culture medium to make a working solution, which was added to a cell culture plate at 5 μL/well so that the compound had the highest concentration of 10 μM and the lowest concentration of 0.0015 μM, and the control group was 0.5% dimethyl sulfoxide. The cell culture plate was briefly centrifuged and then incubated in a CO2 incubator for 72 hours. On day 5, the cell culture plate was taken out, added with Cell Titer-Glo (Promega) detection reagent in each well, incubated in the dark for 10 minutes, and then luminescence was detected using a microplate reader (Tecan, Infinite M1000 Pro). Data were analyzed using Graphpad software, and curve fitting was performed with four-parameter equation and the IC50 value of the inhibitor was calculated.

[4] = test system: GP2D human colon cancer cells; assay: Cell proliferation assay (Cell Titer-Glo), GP2D; type: cell-based; settings: 72 hours
Procedure: as §1

[5] = test system: GP2D human colon cancer cells subcutaneous xenograft tumor; assay: In vivo pharmacodynamic experiment of subcutaneous xenograft tumor model in mice of GP2D human colon cancer cells; settings: BALB/c nude mice; for Tumor volume (11 days, mm^3): 11 days (at grouping)
Procedure: Cell culture: GP2D human colon cancer cells were maintained in monolayer culture in DMEM culture medium containing 10% fetal bovine serum in a constant temperature incubator containing 5% CO2 at 37° C. Tumor cells were passaged twice a week. Cells in the exponential growth phase were harvested and counted for inoculation.
Experimental animals: BALB/c nude mice, 6 to 8 weeks, 18 to 22 g, purchased from Jiangsu GemPharmatech Co. Ltd.
Experimental method: GP2D cell line ([…]) was inoculated subcutaneously on the right back of experimental mice. The inoculation volume of each mouse was 0.1 mL. The growth of the tumor was observed regularly. When the tumor grew to about 150 mm^3, the mice were randomly grouped according to the tumor size and body weight, and the drug was administrated according to the administration plan shown in Table 1. The body weight and tumor size were measured twice a week throughout the experiment.
tumor volume (mm^3)=0.5×(tumor long diameter×tumor short diameter^2). Tumor size calculation formula: […]

[6] = Homo sapiens, ASPC1, pERK1/2 (THR202/TYR204)
[7] = Homo sapiens, ASPC1, Aspc-1, 72 hours

Sequence of Human KRAS G12D His-tagged protein (P01116-2 other isoform, or with tags, fused parts or gaps G12D): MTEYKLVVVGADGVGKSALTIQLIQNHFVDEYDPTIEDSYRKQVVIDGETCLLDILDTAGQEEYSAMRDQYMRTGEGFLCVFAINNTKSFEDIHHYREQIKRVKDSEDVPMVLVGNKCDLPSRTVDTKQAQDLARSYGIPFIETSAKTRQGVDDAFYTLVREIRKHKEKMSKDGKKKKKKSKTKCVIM

SMILES: Nc1nc2c(-c3c(Cl)c4c5c(nc(OC[C@@]67CCCN6C[C@H](F)C7)nc5c3F)N3C[C@H]5CC[C@H](N5)[C@H]3CO4)cccc2s1 (single isomer, unassigned) [Compound I-12-2]
IC50 [1]: 3.01 nM
IC50 [2, 6]: 8.23 nM

SMILES: [2H]C1([2H])CC[C@@]2(COc3nc4c5c(c(Cl)c(-c6cccc7sc(N)c(C#N)c67)c(F)c5n3)OC[C@@H]3[C@@H]5CC[C@H](CN43)N5)C[C@@H](F)CN12 (single isomer, unassigned) [Compound I-20-2]
IC50 [1]: 1.89 nM
IC50 [3, 7]: 6.49 nM

SMILES: [2H]C([2H])(Oc1nc2c3c(c(Cl)c(-c4cccc5sc(N)c(C#N)c45)c(F)c3n1)OC[C@@H]1[C@@H]3CC[C@H](CN21)N3)[C@@]12CCCN1C[C@H](F)C2 (single isomer, unassigned) [Compound I-24-2]
IC50 [1]: 1.75 nM
IC50 [3, 7]: 6.66 nM

SMILES: [2H]C1([2H])CC[C@@]2(C([2H])([2H])Oc3nc4c5c(c(Cl)c(-c6cccc7sc(N)c(C#N)c67)c(F)c5n3)OC[C@@H]3[C@@H]5CC[C@H](CN43)N5)C[C@@H](F)CN12 (single isomer, unassigned) [Compound I-27-2]
IC50 ([4]; Homo sapiens): 0.133 nM
IC50 [1]: 1.4 nM

SMILES: N#Cc1c(N)sc2cccc(-c3c(Cl)c4c5c(nc(OC[C@@]67CCCN6C[C@H](F)C7)nc5c3F)N3C[C@H]5CC[C@H](N5)[C@H]3CO4)c12 [Compound I-7, 2-amino-4-((5aS,6S,9R)-3-chloro-1-fluoro-13-(((2R,7aS)-2-fluorohexahydro-1H-pyrrolizin-7a-yl)methoxy)-5a,6,7,8,9,10-hexahydro-5H-6,9-epiminoazepino[2′,1′:3,4][1,4]oxazepino[5,6,7-de]quinazolin-2-yl)benzo[b]thiophene-3-carbonitrile ditrifluoroacetate]
IC50 [1]: 6.59 nM
IC50 ([2]; pERK1/2 (THR202/TYR204)): 1.59 nM
IC50 ([3]; Aspc-1, 72 hours): 5.53 nM

SMILES: N#Cc1c(N)sc2c(F)ccc(-c3c(Cl)c4c5c(nc(OC[C@@]67CCCN6C[C@H](F)C7)nc5c3F)N3C[C@H]5CC[C@H](N5)[C@H]3CO4)c12 [Compound I-11, 2-amino-4-((5aS,6S,9R)-3-chloro-1-fluoro-13-(((2R,7aS)-2-fluorohexahydro-1H-pyrrolizin-7a-yl)methoxy)-5a,6,7,8,9,10-hexahydro-5H-6,9-epiminoazepino[2′,1′:3,4][1,4]oxazepino[5,6,7-de]quinazolin-2-yl)-7-fluorobenzo[b]thiophene-3-carbonitrile]
IC50 ([4]; Homo sapiens): 0.336 nM
IC50 [1]: 11.2 nM
IC50 [2, 6]: 1.01 nM
IC50 [3, 7]: 12.6 nM

IC50 [4]: 0.124 nM
IC50 [1]: 8.52 nM
IC50 ([2]; pERK1/2 (THR202/TYR204)): 1.29 nM
IC50 ([3]; Aspc-1, 72 hours): 6.76 nM
SMILES: N#Cc1c(N)sc2ccc(F)c(-c3c(Cl)c4c5c(nc(OC[C@@]67CCCN6C[C@H](F)C7)nc5c3F)N3C[C@H]5CC[C@H](N5)[C@H]3CO4)c12 [Compound I-14, 2-amino-4-((5aS,6S,9R)-3-chloro-1-fluoro-13-(((2R,7aS)-2-fluorohexahydro-1H-pyrrolizin-7a-yl)methoxy)-5a,6,7,8,9,10-hexahydro-5H-6,9-epiminoazepino[2′,1′:3,4][1,4]oxazepino[5,6,7-de]quinazolin-2-yl)-5-fluorobenzo[b]thiophene-3-carbonitrile ditrifluoroacetate]

IC50 [4]: 0.497 nM
IC50 [1]: 7.77 nM
IC50 ([2]; pERK1/2 (THR202/TYR204)): 5.58 nM
IC50 ([3]; Aspc-1, 72 hours): 31.9 nM
SMILES: CC(Oc1nc2c3c(c(Cl)c(-c4cccc5sc(N)c(C#N)c45)c(F)c3n1)OC[C@@H]1[C@@H]3CC[C@H](CN21)N3)[C@@]12CCCN1C[C@H](F)C2 (stereo partly drawn) [Compound I-17, 2-amino-4-((5aS,6S,9R)-3-chloro-1-fluoro-13-(1-((2R,7aS)-2-fluorohexahydro-1H-pyrrolizin-7a-yl)ethoxy)-5a,6,7,8,9,10-hexahydro-5H-6,9-epiminoazepino[2′,1′:3,4][1,4]oxazepino[5,6,7-de]quinazolin-2-yl)benzo[b]thiophene-3-carbonitrile ditrifluoroacetate]

SMILES: Cc1ccc2sc(N)c(C#N)c2c1-c1c(Cl)c2c3c(nc(OC[C@@]45CCCN4C[C@H](F)C5)nc3c1F)N1C[C@H]3CC[C@H](N3)[C@H]1CO2 [Compound I-21, 2-amino-4-((5aS,6S,9R)-3-chloro-1-fluoro-13-(1-((2R,7aS)-2-fluorohexahydro-1H-pyrrolizin-7a-yl)methoxy)-5a,6,7,8,9,10-hexahydro-5H-6,9-epiminoazepino[2′,1′:3,4][1,4]oxazepino[5,6,7-de]quinazolin-2-yl)-5-methylbenzo[b]thiophene-3-carbonitrile ditrifluoroacetate]
IC50 [1]: 9.76 nM
IC50 [3, 7]: 16.9 nM

SMILES: N#Cc1c(N)sc2c1C(c1c(Cl)c3c4c(nc(OC[C@@]56CCCN5C[C@H](F)C6)nc4c1F)N1C[C@H]4CC[C@H](N4)[C@H]1CO3)=CCC2 [Compound I-25, 2-amino-4-((5aS,6S,9R)-3-chloro-1-fluoro-13-(((2R,7aS)-2-fluorohexahydro-1H-pyrrolizin-7a-yl)methoxy)-5a,6,7,8,9,10-hexahydro-5H-6,9-epiminoazepino[2′,1′:3,4][1,4]oxazepino[5,6,7-de]quinazolin-2-yl)-6,7-dihydrobenzo[b]thiophene-3-carbonitrile ditrifluoroacetate]
IC50 [1]: 12 nM
IC50 [3, 7]: 25.8 nM

SMILES: C#Cc1c(F)ccc2cc(O)cc(-c3ncc4c(N5CC6CCC(C5)N6)nc(OC[C@@]56CCCN5C[C@H](F)C6)nc4c3F)c12 [Ref. A, MRTX1133, reference compound]
Tumor volume (11 days, mm^3) ([5]; 3 mg/kg i.p. twice a day): 139.25 ± 17.31 mm^3
Tumor volume (21 days, mm^3) ([5]; 3 mg/kg i.p. twice a day): 137.35 ± 18.79 mm^3
T/C (%) ([5]; 3 mg/kg i.p. twice a day): 30.3%
Tumor regression rate (%) ([5]; 3 mg/kg i.p. twice a day): −1.4%
Tumor volume (11 days, mm^3) ([5]; 10 mg/kg i.p. twice a day): 139.90 ± 20.43 mm^3
Tumor volume (21 days, mm^3) ([5]; 10 mg/kg i.p. twice a day): 79.77 ± 13.97 mm^3
T/C (%) ([5]; 10 mg/kg i.p. twice a day): 17.6%
Tumor regression rate (%) ([5]; 10 mg/kg i.p. twice a day): −43.0%
